Source: the NIST ThermoML archive (doi:10.1021/je0302304)
Numbers after ± are expanded uncertainties.

Assay: xn = mol fraction of the nth substance listed
Details: 101.32 kPa, Liquid

COCCOCCOC [2,5,8-trioxanonane] + CCO
mass density [kg/m3]
Details	288.15 K	298.15 K	308.15 K	318.15 K
x1 = 0.0045	795.6 ± 0.5	787 ± 0.5	778.4 ± 0.5	769.6 ± 0.5
x1 = 0.0085	797.1 ± 0.4	788.6 ± 0.5	779.9 ± 0.5	771.1 ± 0.5
x1 = 0.0125	798.7 ± 0.4	790.1 ± 0.5	781.5 ± 0.5	772.6 ± 0.5
x1 = 0.0165	800.3 ± 0.4	791.7 ± 0.5	783 ± 0.5	774.1 ± 0.5
x1 = 0.0205	801.8 ± 0.4	793.2 ± 0.5	784.4 ± 0.5	775.6 ± 0.5
x1 = 0.0305	805.5 ± 0.4	796.9 ± 0.4	788.1 ± 0.5	779.2 ± 0.5
x1 = 0.05	812.6 ± 0.4	803.8 ± 0.4	795 ± 0.5	786 ± 0.5
x1 = 0.1	828.7 ± 0.4	819.7 ± 0.4	810.7 ± 0.4	801.5 ± 0.4
x1 = 0.15	842.6 ± 0.4	833.6 ± 0.4	824.5 ± 0.4	815.1 ± 0.4
x1 = 0.2	855 ± 0.4	845.8 ± 0.4	836.5 ± 0.4	827.1 ± 0.4
x1 = 0.25	865.9 ± 0.3	856.6 ± 0.4	847.3 ± 0.4	837.8 ± 0.4
x1 = 0.3	875.7 ± 0.3	866.3 ± 0.3	856.9 ± 0.4	847.3 ± 0.4
x1 = 0.35	884.5 ± 0.3	875 ± 0.3	865.5 ± 0.4	855.8 ± 0.4
x1 = 0.4	892.4 ± 0.3	882.9 ± 0.3	873.2 ± 0.3	863.5 ± 0.4
x1 = 0.45	899.6 ± 0.3	889.9 ± 0.3	880.2 ± 0.3	870.5 ± 0.3
x1 = 0.4999	906 ± 0.3	896.4 ± 0.3	886.7 ± 0.3	876.8 ± 0.3
x1 = 0.55	912 ± 0.3	902.3 ± 0.3	892.5 ± 0.3	882.6 ± 0.3
x1 = 0.5999	917.4 ± 0.3	907.7 ± 0.3	897.8 ± 0.3	887.9 ± 0.3
x1 = 0.65	922.5 ± 0.3	912.6 ± 0.3	902.8 ± 0.3	892.8 ± 0.3
x1 = 0.6999	927.1 ± 0.3	917.2 ± 0.3	907.3 ± 0.3	897.3 ± 0.3
x1 = 0.7499	931.3 ± 0.3	921.4 ± 0.3	911.5 ± 0.3	901.5 ± 0.3
x1 = 0.7999	935.3 ± 0.3	925.4 ± 0.3	915.4 ± 0.3	905.4 ± 0.3
x1 = 0.8499	939 ± 0.3	929 ± 0.3	919.1 ± 0.3	909 ± 0.3
x1 = 0.8998	942.4 ± 0.3	932.4 ± 0.3	922.5 ± 0.3	912.5 ± 0.3
x1 = 0.9498	945.7 ± 0.3	935.7 ± 0.3	925.7 ± 0.3	915.7 ± 0.3
x1 = 1	948.6 ± 0.3	938.7 ± 0.3	928.7 ± 0.3	918.6 ± 0.3
